The test system of data set [1] is differentiated HL-60 cells. Nature of the data set: Curcumin-induced extracellular calcium influx. The data set is classed as cell-based. As for the experimental part:
Extracellular calcium influx, which is triggered by the depletion of ER calcium stores, was measured in cells treated with free curcumin or treated with curcumin-loaded nanoparticles as follows. Differentiated HL-60 cells were pretreated with free curcumin (10 μM), curcumin-loaded PLGA nanoparticles (0.5 μM), and curcumin-loaded ER-targeted PLGA nanoparticles (0.5 μM) at 37° C. overnight. Cells were washed with calcium-free HBSS, seeded on poly-lysine coated 8-well slides (ibidi, Planegg, Germany) at a density of 1×10^6 cells/ml, and incubated at 37° C. for 30 min. Cells were labeled with 2 μM of the calcium-sensitive fluorescent dye Fluo-4 AM and 1 μM of ER-tracker at 37° C. for 30 min. Labeled cells were treated with 1.25 mM CaCl2. Fluorescence images were captured by confocal microscopy every 10 s for 5 min. following the addition of CaCl2. Fluorescence intensities in these images were analyzed using ImageJ software. The change in fluorescence intensity over time divided by the baseline fluorescence intensity prior to calcium addition (ΔF/FO) was plotted versus time, and the rate of calcium level increase (ΔF/F/s) was derived from that plot. The overall calcium flux was calculated as the area under the curve (AUC) of a ΔF/F/s versus time curve.

The next data set relates to H338Y-gp91^phox protein. The data set can be described thus: Expression and maturation of H338Y-gp91^phox protein in neutrophils of treated transgenic mice (Western blot). The following applies: Cybb^C1024T transgenic Cybb^-/- mice, treated 24 hours, 20 mg/kg of curcumin. Type of data set: in vivo, mouse. As for the experimental part:
The expression of H338Y-gp91^phox protein in neutrophils from the Cybb^C1024T transgenic Cybb^−/− mice was examined by SDS-PAGE and Western blotting with an anti-gp91^phox antibody. To isolate neutrophils, mice were injected intraperitoneally with 3 ml of 3% thioglycollate to elicit peritoneal neutrophils. Four hours later, the mice were sacrificed, and the peritoneal cavity was washed twice with 5 ml of Hanks buffered salt solution (HBSS) with 2 mM ethylene glycol tetraacetic acid to collect the elicited peritoneal neutrophils. Peritoneal neutrophils were then washed with PBS before use.
Curcumin-loaded PLGA nanoparticles with or without the ER-targeting KDEL peptide were tested for their effects on the expression and maturation of H338Y-gp91^phox protein in Cybb^C1024T transgenic Cybb^−/− mice. Briefly, mice were untreated or treated separately with free curcumin, curcumin-loaded PLGA nanoparticles, or curcumin-loaded ER-targeted PLGA nanoparticles for 24 hours in amounts corresponding to 20 mg/kg of curcumin. Neutrophils from the mice were elicited, isolated, and analyzed for expression of H338Y-gp91^phox protein as described above.
Statistical analyses were carried out with Prism software (GraphPad Software). […]
For orientation: In western blotting, separated proteins are transferred to a membrane and probed.

Data set [2] concerns differentiated HL-60 cells. The data set can be described thus: Curcumin-induced intracellular calcium release (Fluo-4AM). The data set is classed as cell-based. To be noted: 10 μM. As for the experimental part: SERCA inhibitors such as curcumin cause an increase in intracellular calcium release from the ER. The ability of curcumin to induce calcium release was compared to that of PLGA nanoparticle-encapsulated curcumin. Differentiated HL-60 cells were seeded on 8-well slides in calcium-free medium and loaded with the intracellular calcium-sensitive indicator dye Fluo-4AM. Cells were treated with thapsigargin (positive control) or treated with 0.5, 1, or 10 μM curcumin, curcumin-loaded PLGA nanoparticles, or curcumin-loaded ER-targeted PLGA nanoparticles. Fluorescence intensity over time was measured in treated cells by confocal microscopy and analyzed using ImageJ software. The change in fluorescence intensity over time divided by the baseline fluorescence intensity prior to calcium addition (ΔF/FO) was plotted versus time.
In general terms: Calcium flux is commonly read through the fluorescence of an indicator in the cells.

The test system of data set [3] is differentiated HL-60 cells. Nature of the data set: Mitochondrial membrane potential (TMRM, flow cytometry). The following applies: 10 μM, 24 hours; FIG. 5A. Type of data set: cell-based. As for the experimental part:
As mentioned above, it has been shown that curcumin is cytotoxic, as it induces ER stress and apoptosis. The cytotoxicity of free curcumin was compared to that of encapsulated curcumin by measuring in treated cells mitochondrial membrane potential (one measure of cytotoxicity), apoptotic markers, and ER stress-related protein expression.
(§1) Differentiated HL-60 cells were treated with 0.5 μM or 10 μM free curcumin, curcumin-loaded PLGA nanoparticles, or curcumin-loaded ER-targeted PLGA nanoparticles for 24 hours. Treated cells were labeled with 250 nM of the mitochondrial membrane potential indicator dye tetramethylrhodamine (TMRM) at 37° C. for 30 min. TMRM-labeled cells were analyzed by flow cytometry and their mitochondrial membrane potentials quantified using the Flowing Software 2 software package.

Data set [4] has as its system differentiated HL-60 cells. The data set can be described thus: Detection of apoptotic cells (Annexin V / 7-AAD). The data set is classed as cell-based. To be noted: 10 μM, 24 hours; FIG. 5B. As for the experimental part: as §1
Cells treated as above with free or encapsulated curcumin were washed with ice-cold phosphate-buffered saline and stained with phycoerythrin-Annexin V and 7 amino-actinomycin D (7-AAD) at room temperature for 15 min. Annexin V binds to the surface of cells undergoing apoptosis, and 7-AAD only enters and stains apoptotic cells. Stained cells were subjected to flow cytometry analysis and the results analyzed using the Flowing Software 2 analysis package.

The subject of data set [5] is differentiated HL-60 cells. Nature of the data set: ER stress response and caspase-3 cleavage (Western blot). Type of data set: cell-based. The following applies: 10 μM. As for the experimental part: To determine whether the activation of the ER stress response is involved in curcumin-induced apoptosis, the levels of ER stress markers Bip and phosphorylated ERK, as well as the level of cleaved Caspase-3, a marker of apoptosis, were quantified by Western blot analysis of cells treated with 10 μM curcumin or encapsulated curcumin.
Briefly, treated cells were lysed in 100 μl of lysis buffer (1% Triton-X100, 150 mM NaCl, 10 mM Tris base, 1 mM EDTA, 1 mM EGTA, 50×protease inhibitor cocktail, pH 7.4). Lysed samples were subjected to 10% SDS-PAGE and transferred to membranes for Western Blot analysis using antibodies that bind to Bip, phospho-ERK, total ERK, cleaved caspase-3, and β-actin. Binding of these antibodies was visualized using commercially available enhanced chemiluminescence reagents. Chemiluminescent signals were quantified from images using ImageJ software.

Data set [6] concerns human peripheral blood hematopoietic cells (HSCs). Nature of the data set: Erythroblast differentiation (CD71 / CD235a flow cytometry). Type of data set: cell-based. The following applies: FIG. 6A. As for the experimental part:
Erythroblast differentiation was measured in human peripheral blood hematopoietic cells (HSCs) treated with free curcumin or treated with curcumin-loaded nanoparticles as follows. Human CD34^+ HSCs were cultured in Iscove's modified Dulbecco medium containing 15% heat-inactivated fetal calf serum, 2 U/ml of recombinant human erythropoietin, 20 ng/ml of stem cell factor, and 10 ng/ml of interleukin-3 (IL-3). On day 4, the medium was replaced with fresh medium without IL-3 and the HSCs were cultured for another 5 days. The maturation of erythroblasts was analyzed by detecting the surface expression of CD71 and CD235a with flow cytometry.

As for `C/C=C(/C)C(=O)O[C@H]1C(C)=C2[C@H]([C@@H]1OC(=O)CCCCCCC)[C@@](C)(OC(C)=O)C[C@H](OC(=O)CCC)[C@@]1(O)[C@H]2OC(=O)[C@@]1(C)O` [Thapsigargin, thapsigargin], in data set [1] (positive control, 1.25 mM extracellular calcium), the “time to calcium influx after addition” value is recorded as no more than 10 s.

Take `COc1cc(/C=C/C(=O)CC(=O)/C=C/c2ccc(O)c(OC)c2)ccc1O` [free curcumin, curcumin]: the “expression of glycosylated H338Y-gp91^phox as compared to untreated mice” value in the data set with H338Y-gp91^phox protein was “did not show any change”. The “rate of intracellular calcium increase, compared with lower concentrations of free curcumin” value in data set [2] was “highest”. The “level of calcium release, compared with 0.5 μM and 1 μM free curcumin” value in data set [2] (calcium-free medium, 40, 50 and 60 s after treatment) was “significantly higher”. For the same compound, in data set [1] (10 μM), the “calcium influx rate 20 s after treatment, compared with 0.5 μM curcumin-loaded nanoparticles” value is on record as “significantly higher”. In addition, in data set [3], the “mitochondrial membrane potential compared with control untreated cells” value is “significant reduction”. Further, the “number of apoptotic cells (Annexin V binding)” value in data set [4] is “significant increase”. In data set [5] (FIG. 5C center panel), the “ERK phosphorylation compared with untreated control cells” value is given as “increased”. In data set [5] (FIG. 5C left panel), the “Bip expression compared with untreated control cells” value is reported as “increased”. Further, in data set [6], the “percentages of more mature CD71^low CD235^high cells in treated HSCs” value is “significantly enhanced”.
